Measurements published in US10080366B2, “Agent for increasing sugar content in fruit” (RIKEN, priority 2012, dated 2018).

What was measured:
[1] = tested on: Grape (fruit: Cabernet Sauvignon); details: 10 g/L, three times at intervals of one week
From the text: (§1) To each of the plants shown in Table 16 below, an aqueous potassium hydrogen carbonate solution (5 g/L for lettuce and 10 g/L for the other plants) was applied three times at intervals of one week from one month before the harvest. The plants were harvested three weeks after the start of the application. Untreated plants not treated with the aqueous potassium hydrogen carbonate solution were harvested at the same time. After the harvest, the total amount of amino acids in each sample was determined, and the ratio of the total amount of amino acids in the plant treated with potassium hydrogen carbonate to the total amount of amino acids in the untreated plant was determined.

[2] = tested on: Wheat (grains: Norin No. 61); details: 10 g/L, three times at intervals of one week
From the text: as §1

O=C([O-])O.[K+] [Potassium hydrogen carbonate, potassium hydrogen carbonate]
Amino acid concentration ratio (treated/untreated) [1]: 2.2
Amino acid concentration ratio (treated/untreated) [2]: 1.2
